Data: patent publication EP2345639A1, “Cyclic hydroxylamine derivatives, their preparation and use as antioxidants” (ABIOGEN PHARMA S.p.A., priority 2009, dated 2011)
Read-outs that look alike come from different tables or passages of the source. One block for each compound: values may come before it.

Columns and labels:
[1] = tested on: doxorubicin-induced cerebral oxidative stress in mice; assay: In vivo assay of cerebral oxidative stress induced in mice by doxorubicin (model and oxidized animals); settings: for inhibition in vivo at 50 mg/kg / change in vivo at 50 mg/kg: Mus musculus; for inhibition in vivo at 50 mg/kg: read-out: inhibition of the doxorubicin effect; for change in vivo at 50 mg/kg / mean % effect relative to doxorubicin alone, all parameters (Vehicle): oxidized mice; for mean % effect relative to doxorubicin alone, all parameters (Vehicle): computed as a function of the vehicle
Description: The assay was carried out on compounds (1)-(5) and (7)-(11) and on edaravone (E) as comparative compound.
10 mice were used for each treatment group. For each compound 50 mg/kg were administered intraperitoneally (IP) for three consecutive days (day 0, 1 and 2); half the animals (5) also received IP 16.7 mg/kg of doxorubicin immediately after the first treatment (day 0). On the day after the last administration (day 3) the animals were killed by neck dislocation and the brains were removed, weighed and frozen in liquid nitrogen.
For the analyses of oxidative stress, 100 mg/ml of brain homogenate was prepared in HEB^(*) buffer (pH 7.4 EDTA/HEPES^(**)) containing a mixture of enzyme inhibitors (Leupeptin, Pepstatin, Aprotinin, BHA).
The evaluation parameters were: • BrW/BWi: ratio between final brain weight and initial body weight (day 0); • Prot. Hmg: total proteins in the homogenate (BCA method, i.e. bicinchoninic acid); • Prot. Ox: oxidized proteins in the Hmg by means of a colorimetric method using dinitrophenylhydrazone (DNPH); • GSH: reduced glutathione in the supernatant (sn) of the Hmg, obtained after precipitation with metaphosphoric acid (MPA), by means of a colorimetric method using dithiodinitrobenzene (DTNB); • CAT: catalase in the Hmg by a colorimetric method using potassium dichromate; • SOD: superoxide dismutase by a colorimetric method using SOD Reagent (xanthine, EDTA, nitroblue tetrazole, Na2CO3, BSA, i.e. bovine serum albumin); • GST: glutathione S-transferase in the supernatant by a colorimetric method using chlorodinitrobenzene (CDNB) and GSH; and • GPx: glutathione peroxidase in the supernatant after addition of GSH and t-BuOOH, heating and precipitation with MPA; followed by GSH method with DTNB. The assay was performed on the compounds (1)-(5) and (7)-(11) and on edaravone (E), as comparative compound.
The mean effect (n=5 experiments) of doxorubicin (D), i.e. "oxidized" animal, relative to the vehicle (V), the vehicle representing the healthy animal.
All the parameters, with the exclusion of Brain/BWi and Prot. Hmg, were normalized for total Hmg proteins. The D value standard deviations and the % incidence relative to V are given in italics.
The effect of the tested compounds on the "oxidized" animals was given as % inhibition relative to the percentage change due to doxorubicin alone. The effect of the compounds on the oxidized animals can be expressed both as a function of the values of the vehicle (healthy, vehicle only) and as a function of the value of its own (healthy, compound only): • Vehicle: percentage [(Compound+D)/V]x100/[(V+D)/V]x100 • Its own: percentage [(Compound+D)/Compound]x100/[(V+D)/V]x100
Again in this case, the mean % effect relative to doxorubicin alone could be given for all the parameters simultaneously, as an approximate index of effectiveness on the cerebral oxidative state of the animal.

[2] = Brain-to-plasma concentration ratio in mice; assay type: in vivo, Female CD-1 mice; settings: female, CD-1, mouse, ip, 25 mg/kg intraperitoneal, area under the curve of brain and plasma concentrations 0 to 60 minutes, read-out: B/P ratio
Description: The ability of the compounds of the invention to penetrate the brain was investigated by measuring their brain/plasma (B/P) ratio in mice following intraperitoneal administration.
Female CD-1 mice were used (n=3 for each time period) and received the compounds of the invention by intraperitoneal administration, in 25 mg/kg doses in a 0.5% NaHCO3 buffer (pH 8.3). At predefined intervals following said administration, i.e. 5, 15, 30 and 60 minutes, the mice were killed and both plasma and total brain tissue were collected.
Specifically, after anaesthesia with ether, the animals were bled by blood withdrawal from the abdominal aorta then immediately decapitated. The blood samples were collected into plasma separator tubes containing Li-Heparin as anticoagulant and centrifuged. The resulting plasma was then stored at -20 °C. The brain was rapidly removed from the cranium and weighed, subsequently frozen and stored at -20 °C before treatment by homogenization and HPLC analysis.
The plasma was thawed and mixed with an equal volume of the extraction solution.
1 ml of solution was then extracted by adding 20 µl of 70% HClO4, then centrifuged at 15,500g for 5 minutes and injected into the HPLC.
Each brain was thawed and homogenized with the extraction solution to provide a final composition of 4 ml/1g of tissue by means of an Ultra-Turrax blender and sonicated for 5 minutes. After centrifugation of the homogenate at 15,500g for 5 minutes, the resulting solution was treated with HClO4, as indicated for the plasma. Specific chromatographic conditions had been developed for each analyte, the calibration curve being constructed for plasma and brain homogenate.

female CD-1 mice = assay: Acute toxicity study, intraperitoneal, single dose; settings: in vivo
Description: This study was carried out with the purpose of investigating the toxicity of a single dose of the listed compounds administered to ICR (CD-1) female mice. According to the current OECD guideline no.
The mice used were all female and were treated by intraperitoneal injection administration. The animals were observed individually and regularly for the first 4 hours and within 24 hours after administration, and then twice a day for the whole observation period. As soon as the animals were stabilized, observations at the weekend were undertaken once only during the day.
The evaluated parameters included the survival, body weight development, variations in skin and fur, changes in ocular, conjunctival and buccal mucous membranes, changes in activities of the respiratory, circulatory, autonomous and central nervous systems, changes in somatomotor activity and in behaviour.
Any appearance of tremors, convulsions, salivation, diarrhea, lethargy, drowsiness and coma were attentively and regularly monitored. At the end of the observation period, a post-mortem was carried out on all the animals.

[3] = ip, overall, compared with its own vehicle
[4] = ip, overall, with respect to the vehicle
[5] = ip, % inhibition relative to change due to doxorubicin alone, vs its own, read-out: Brain/BWi its own
[6] = ip, % inhibition relative to change due to doxorubicin alone, vs its own, read-out: CAT/pr its own
[7] = ip, % inhibition relative to change due to doxorubicin alone, vs its own, read-out: GPX/pr its own
[8] = ip, % inhibition relative to change due to doxorubicin alone, vs its own, read-out: GSH/pr its own
[9] = ip, % inhibition relative to change due to doxorubicin alone, vs its own, read-out: GST/pr its own
[10] = ip, % inhibition relative to change due to doxorubicin alone, vs its own, read-out: Prot. Hmg its own
[11] = ip, % inhibition relative to change due to doxorubicin alone, vs its own, read-out: Prot. Ox/pr its own
[12] = ip, % inhibition relative to change due to doxorubicin alone, vs its own, read-out: SOD/pr its own
[13] = ip, % inhibition relative to change due to doxorubicin alone, vs vehicle, read-out: Brain/BWi vehicle
[14] = ip, % inhibition relative to change due to doxorubicin alone, vs vehicle, read-out: CAT/pr vehicle
[15] = ip, % inhibition relative to change due to doxorubicin alone, vs vehicle, read-out: GPX/pr vehicle
[16] = ip, % inhibition relative to change due to doxorubicin alone, vs vehicle, read-out: GSH/pr vehicle
[17] = ip, % inhibition relative to change due to doxorubicin alone, vs vehicle, read-out: GST/pr vehicle
[18] = ip, % inhibition relative to change due to doxorubicin alone, vs vehicle, read-out: Prot. Hmg vehicle
[19] = ip, % inhibition relative to change due to doxorubicin alone, vs vehicle, read-out: Prot. Ox/pr vehicle
[20] = ip, % inhibition relative to change due to doxorubicin alone, vs vehicle, read-out: SOD/pr vehicle
[21] = 50 mg/kg IP x3 days + doxorubicin, computed as a function of its own (healthy, compound only), read-out: mean % effect relative to doxorubicin alone, all parameters (Its own)
[22] = 50 mg/kg IP x3 days + doxorubicin

Kp [2]: 0.123
SMILES: CC1=NN(c2ccccc2)C(=O)C1 [edaravone, reference compound]
inhibition in vivo at 50 mg/kg [1, 3]: 75% | inhibition in vivo at 50 mg/kg [1, 4]: ~75% | change in vivo at 50 mg/kg [1, 5]: -13% | change in vivo at 50 mg/kg [1, 6]: -120% | change in vivo at 50 mg/kg [1, 7]: -130% | change in vivo at 50 mg/kg [1, 8]: -111% | change in vivo at 50 mg/kg [1, 9]: -126% | change in vivo at 50 mg/kg [1, 10]: -117% | change in vivo at 50 mg/kg [1, 11]: -5.2% | change in vivo at 50 mg/kg [1, 12]: -49% | change in vivo at 50 mg/kg [1, 13]: -44.9% | change in vivo at 50 mg/kg [1, 14]: -100% | change in vivo at 50 mg/kg [1, 15]: -106% | change in vivo at 50 mg/kg [1, 16]: -59.2% | change in vivo at 50 mg/kg [1, 17]: -110% | change in vivo at 50 mg/kg [1, 18]: -102% | change in vivo at 50 mg/kg [1, 19]: -22.7% | change in vivo at 50 mg/kg [1, 20]: -32.9% | change in vivo at 50 mg/kg [1, 21]: -77.2% | mean % effect relative to doxorubicin alone, all parameters (Vehicle) [1, 22]: -72.3%

Kp [2]: > 0.1
SMILES: CC1(C)CC(=O)C(C2CCCCN2O)C(=O)C1 (stereo not drawn) [(3), 2-(1-hydroxypiperidin-2-yl)-5,5-dimethylcyclohexane-1,3-dione]
inhibition in vivo at 50 mg/kg [1, 4]: ≥ 50% | change in vivo at 50 mg/kg [1, 5]: 7.2% | change in vivo at 50 mg/kg [1, 6]: -87.1% | change in vivo at 50 mg/kg [1, 7]: -108% | change in vivo at 50 mg/kg [1, 8]: -11.2% | change in vivo at 50 mg/kg [1, 9]: -50.5% | change in vivo at 50 mg/kg [1, 10]: -125% | change in vivo at 50 mg/kg [1, 11]: 195% | change in vivo at 50 mg/kg [1, 12]: 30.8% | change in vivo at 50 mg/kg [1, 13]: -53.6% | change in vivo at 50 mg/kg [1, 14]: -23.5% | change in vivo at 50 mg/kg [1, 15]: -91.9% | change in vivo at 50 mg/kg [1, 16]: -49.6% | change in vivo at 50 mg/kg [1, 17]: -110% | change in vivo at 50 mg/kg [1, 18]: -114% | change in vivo at 50 mg/kg [1, 19]: -45.9% | change in vivo at 50 mg/kg [1, 20]: 86.7% | change in vivo at 50 mg/kg [1, 21]: -76.6% | inhibition of the doxorubicin effect ([1]; overall, compared with its own vehicle): at the level of edaravone | mean % effect relative to doxorubicin alone, all parameters (Vehicle) [1, 22]: -50.3%

SMILES: O=C1CC(c2ccccc2)CC(=O)C1C1COCCN1O (stereo not drawn) [(5), 2-(4-hydroxymorpholin-3-yl)-5-phenylcyclohexane-1,3-dione]
toxic effect (female CD-1 mice; mouse): no toxic effect | inhibition in vivo at 50 mg/kg [1, 3]: 45 to 50% | change in vivo at 50 mg/kg [1, 5]: -128% | change in vivo at 50 mg/kg [1, 6]: -24.2% | change in vivo at 50 mg/kg [1, 7]: -14.1% | change in vivo at 50 mg/kg [1, 8]: -40.8% | change in vivo at 50 mg/kg [1, 9]: -27.5% | change in vivo at 50 mg/kg [1, 10]: -42.2% | change in vivo at 50 mg/kg [1, 11]: -43.6% | change in vivo at 50 mg/kg [1, 12]: 3.5% | change in vivo at 50 mg/kg [1, 13]: -49.3% | change in vivo at 50 mg/kg [1, 14]: 7.6% | change in vivo at 50 mg/kg [1, 15]: -7.1% | change in vivo at 50 mg/kg [1, 16]: -21.6% | change in vivo at 50 mg/kg [1, 17]: -8.8% | change in vivo at 50 mg/kg [1, 18]: -12% | change in vivo at 50 mg/kg [1, 19]: -15.7% | change in vivo at 50 mg/kg [1, 20]: -4.2% | change in vivo at 50 mg/kg [1, 21]: -47.5% | Kp [2]: > 0.1

SMILES: O=C1c2ccccc2C(=O)C1C1COCCN1O (stereo not drawn) [(8), 2-(4-hydroxymorpholin-3-yl)-2H-indene-1,3-dione]
toxic effect (female CD-1 mice; Example 23): no toxic effect | inhibition in vivo at 50 mg/kg [1, 3]: 45 to 50% | change in vivo at 50 mg/kg [1, 5]: -103% | change in vivo at 50 mg/kg [1, 6]: -28.8% | change in vivo at 50 mg/kg [1, 7]: -2% | change in vivo at 50 mg/kg [1, 8]: -139% | change in vivo at 50 mg/kg [1, 9]: -14.3% | change in vivo at 50 mg/kg [1, 10]: -20.5% | change in vivo at 50 mg/kg [1, 11]: -96.5% | change in vivo at 50 mg/kg [1, 12]: -11.9% | change in vivo at 50 mg/kg [1, 13]: 0% | change in vivo at 50 mg/kg [1, 14]: 27.3% | change in vivo at 50 mg/kg [1, 15]: 29.3% | change in vivo at 50 mg/kg [1, 16]: -48% | change in vivo at 50 mg/kg [1, 17]: 68.1% | change in vivo at 50 mg/kg [1, 18]: 49.4% | change in vivo at 50 mg/kg [1, 19]: -65.7% | change in vivo at 50 mg/kg [1, 20]: 11.9% | change in vivo at 50 mg/kg [1, 21]: -45.6%
